Data: ChEMBL document CHEMBL3885881, “DrugMatrix”

Species on record: Rattus norvegicus
Assay: DrugMatrix - Regimen: Daily Repeat
Assay type: toxicity, organism-based, Sprague-Dawley
Set-up: regimen Daily Repeat, gender Male, age 6-8 weeks
Conditions: in vivo, po, route oral GAVAGE, […]; for ABSOLUTE BASOPHIL / ABSOLUTE EOSINOPHIL / ABSOLUTE LYMPHOCYTE / ABSOLUTE MONOCYTE / ABSOLUTE SEGMENTED NEUTROPHIL / BASOPHIL / EOSINOPHIL / ERYTHROCYTE COUNT / HEMATOCRIT / HEMOGLOBIN / LEUKOCYTE COUNT / LYMPHOCYTE / MEAN CORPUSCULAR HEMOGLOBIN / MEAN CORPUSCULAR HEMOGLOBIN CONCENTRATION / MEAN CORPUSCULAR VOLUME / MONOCYTE / NEUTROPHIL / NUCLEATED RED BLOOD CELLS / PLATELET COUNT: tissue Blood; for ALANINE AMINOTRANSFERASE / ALBUMIN / ALKALINE PHOSPHATASE / ASPARTATE AMINOTRANSFERASE / BLOOD UREA NITROGEN / CARBON DIOXIDE / CHLORIDE / CHOLESTEROL / CREATINE PHOSPHOKINASE / CREATININE / GLUCOSE / LACTATE DEHYDROGENASE / LIPASE / PHOSPHORUS / POTASSIUM / SODIUM / TOTAL BILIRUBIN / TOTAL PROTEIN / URIC ACID: tissue Plasma
[1] = 100 mg/kg, 120 h, dose level Low, time 5 day
[2] = 700 mg/kg, 72 h, dose level High, time 3 day
[3] = 700 mg/kg, 120 h, dose level High, time 5 day

Structure (SMILES): CC(=O)Nc1cccc(O)c1 [METACETAMOL]
- ABSOLUTE BASOPHIL [1]: 0 CELLS/uL
- ABSOLUTE EOSINOPHIL [1]: 0 CELLS/uL
- ABSOLUTE LYMPHOCYTE [1]: 14298.33 CELLS/uL
- ABSOLUTE MONOCYTE [1]: 106.33 CELLS/uL
- ABSOLUTE SEGMENTED NEUTROPHIL [1]: 1828.67 CELLS/uL
- BASOPHIL [1]: 0%
- EOSINOPHIL [1]: 0%
- ERYTHROCYTE COUNT [1]: 5.63 x10E6/uL
- HEMATOCRIT [1]: 35%
- HEMOGLOBIN [1]: 13.73 G/DL
- LEUKOCYTE COUNT [1]: 16.23 x10E3/uL
- LYMPHOCYTE [1]: 88%
- MEAN CORPUSCULAR HEMOGLOBIN [1]: 24.43 pg
- MEAN CORPUSCULAR HEMOGLOBIN CONCENTRATION [1]: 39.23 G/DL
- MEAN CORPUSCULAR VOLUME [1]: 62.23 fL
- MONOCYTE [1]: 0.67%
- NEUTROPHIL [1]: 11.33%
- NUCLEATED RED BLOOD CELLS [1]: 0.33 /100WBC
- PLATELET COUNT [1]: 1235.67 x10E3/uL
- ALANINE AMINOTRANSFERASE [1]: 58.33 u/L
- ALBUMIN [1]: 4.03 G/DL
- ALKALINE PHOSPHATASE [1]: 434.67 u/L
- ASPARTATE AMINOTRANSFERASE [1]: 95 u/L
- BLOOD UREA NITROGEN [1]: 14.67 mg/dL
- CARBON DIOXIDE [1]: 26.67 mmol/L
- CHLORIDE [1]: 101 MEQ/L
- CHOLESTEROL [1]: 68.33 mg/dL
- CREATINE PHOSPHOKINASE [1]: 455.33 u/L
- CREATININE [1]: 0.2 mg/dL
- GLUCOSE [1]: 151 mg/dL
- LACTATE DEHYDROGENASE [1]: 549 u/L
- LIPASE [1]: 10.33 u/L
- PHOSPHORUS [1]: 11.03 mg/dL
- POTASSIUM [1]: 6.46 MEQ/L
- SODIUM [1]: 140.67 MEQ/L
- TOTAL BILIRUBIN [1]: 0.17 mg/dL
- TOTAL PROTEIN [1]: 5.73 G/DL
- URIC ACID [1]: 1.6 mg/dL
- ABSOLUTE BASOPHIL [2]: 0 CELLS/uL
- ABSOLUTE EOSINOPHIL [2]: 0 CELLS/uL
- ABSOLUTE LYMPHOCYTE [2]: 14734.67 CELLS/uL
- ABSOLUTE MONOCYTE [2]: 227.67 CELLS/uL
- ABSOLUTE SEGMENTED NEUTROPHIL [2]: 1637.67 CELLS/uL
- BASOPHIL [2]: 0%
- EOSINOPHIL [2]: 0%
- ERYTHROCYTE COUNT [2]: 5.31 x10E6/uL
- HEMATOCRIT [2]: 34.37%
- HEMOGLOBIN [2]: 13.6 G/DL
- LEUKOCYTE COUNT [2]: 16.6 x10E3/uL
- LYMPHOCYTE [2]: 89%
- MEAN CORPUSCULAR HEMOGLOBIN [2]: 25.6 pg
- MEAN CORPUSCULAR HEMOGLOBIN CONCENTRATION [2]: 39.6 G/DL
- MEAN CORPUSCULAR VOLUME [2]: 64.7 fL
- MONOCYTE [2]: 1.33%
- NEUTROPHIL [2]: 9.67%
- NUCLEATED RED BLOOD CELLS [2]: 0 /100WBC
- PLATELET COUNT [2]: 1189.67 x10E3/uL
- ALANINE AMINOTRANSFERASE [2]: 61.67 u/L
- ALBUMIN [2]: 4.37 G/DL
- ALKALINE PHOSPHATASE [2]: 420.33 u/L
- ASPARTATE AMINOTRANSFERASE [2]: 80.33 u/L
- BLOOD UREA NITROGEN [2]: 15.67 mg/dL
- CARBON DIOXIDE [2]: 32.33 mmol/L
- CHLORIDE [2]: 98.67 MEQ/L
- CHOLESTEROL [2]: 94 mg/dL
- CREATINE PHOSPHOKINASE [2]: 171 u/L
- CREATININE [2]: 0.17 mg/dL
- GLUCOSE [2]: 144 mg/dL
- LACTATE DEHYDROGENASE [2]: 137 u/L
- LIPASE [2]: 10 u/L
- PHOSPHORUS [2]: 10.6 mg/dL
- POTASSIUM [2]: 6.44 MEQ/L
- SODIUM [2]: 143.63 MEQ/L
- TOTAL BILIRUBIN [2]: 0.27 mg/dL
- TOTAL PROTEIN [2]: 6 G/DL
- URIC ACID [2]: 1.33 mg/dL
- ABSOLUTE BASOPHIL [3]: 0 CELLS/uL
- ABSOLUTE EOSINOPHIL [3]: 0 CELLS/uL
- ABSOLUTE LYMPHOCYTE [3]: 13480 CELLS/uL
- ABSOLUTE MONOCYTE [3]: 247.33 CELLS/uL
- ABSOLUTE SEGMENTED NEUTROPHIL [3]: 2206 CELLS/uL
- BASOPHIL [3]: 0%
- EOSINOPHIL [3]: 0%
- ERYTHROCYTE COUNT [3]: 5.72 x10E6/uL
- HEMATOCRIT [3]: 35.17%
- HEMOGLOBIN [3]: 13.93 G/DL
- LEUKOCYTE COUNT [3]: 15.93 x10E3/uL
- LYMPHOCYTE [3]: 84.67%
- MEAN CORPUSCULAR HEMOGLOBIN [3]: 24.37 pg
- MEAN CORPUSCULAR HEMOGLOBIN CONCENTRATION [3]: 39.6 G/DL
- MEAN CORPUSCULAR VOLUME [3]: 61.53 fL
- MONOCYTE [3]: 1.67%
- NEUTROPHIL [3]: 13.67%
- NUCLEATED RED BLOOD CELLS [3]: 0.67 /100WBC
- PLATELET COUNT [3]: 1165.67 x10E3/uL
- ALANINE AMINOTRANSFERASE [3]: 57 u/L
- ALBUMIN [3]: 4.27 G/DL
- ALKALINE PHOSPHATASE [3]: 454.33 u/L
- ASPARTATE AMINOTRANSFERASE [3]: 78.67 u/L
- BLOOD UREA NITROGEN [3]: 15.67 mg/dL
- CARBON DIOXIDE [3]: 27.33 mmol/L
- CHLORIDE [3]: 105 MEQ/L
- CHOLESTEROL [3]: 78.67 mg/dL
- CREATINE PHOSPHOKINASE [3]: 239.33 u/L
- CREATININE [3]: 0.25 mg/dL
- GLUCOSE [3]: 169.67 mg/dL
- LACTATE DEHYDROGENASE [3]: 132 u/L
- LIPASE [3]: 10.33 u/L
- PHOSPHORUS [3]: 10.87 mg/dL
- POTASSIUM [3]: 7.12 MEQ/L
- SODIUM [3]: 151.07 MEQ/L
- TOTAL BILIRUBIN [3]: 0.2 mg/dL
- TOTAL PROTEIN [3]: 5.97 G/DL
- URIC ACID [3]: 2 mg/dL
